The values below come from patent US8927533B2, “Thio derivatives bearing lactams as potent HDAC inhibitors and their uses as medicaments” (SIGMA-TAU Industrie Farmaceutiche Riunite S.p.A., priority 2011, dated 2015).

Where two headings read alike, the source gives them in different places.

Holding throughout (type): biochemical
Assay [1] concerns the target HDAC1 (Homo sapiens, UniProt Q13547). As to the kind of experiment: HDAC enzymatic assay, HDAC1. The procedure: (§1) Each compound was dissolved in DMSO, and progressively diluted solutions were used for testing. […] Upon its deacetylation, the fluorophore was released given rise to fluorescence emission which was detected by a fluorimeter, and the IC50 values of the compounds were determined by analyzing dose-response inhibition curves.

Assay [2] has as its target HDAC2 (Homo sapiens, UniProt Q92769). As to the kind of experiment: HDAC enzymatic assay, HDAC2. The protocol: as §1
The target of assay [3] is T1, HDAC3 (complex of full length human HDAC3 with human NCOR2 amino acids 395-489) (Homo sapiens, UniProt O15379).
T1 construct: complex of full length human HDAC3 with a C-terminal His-tag; His-tag (C); host or cells: baculovirus expression system
T1 sequence (O15379 whole entry, the tested form may be a part): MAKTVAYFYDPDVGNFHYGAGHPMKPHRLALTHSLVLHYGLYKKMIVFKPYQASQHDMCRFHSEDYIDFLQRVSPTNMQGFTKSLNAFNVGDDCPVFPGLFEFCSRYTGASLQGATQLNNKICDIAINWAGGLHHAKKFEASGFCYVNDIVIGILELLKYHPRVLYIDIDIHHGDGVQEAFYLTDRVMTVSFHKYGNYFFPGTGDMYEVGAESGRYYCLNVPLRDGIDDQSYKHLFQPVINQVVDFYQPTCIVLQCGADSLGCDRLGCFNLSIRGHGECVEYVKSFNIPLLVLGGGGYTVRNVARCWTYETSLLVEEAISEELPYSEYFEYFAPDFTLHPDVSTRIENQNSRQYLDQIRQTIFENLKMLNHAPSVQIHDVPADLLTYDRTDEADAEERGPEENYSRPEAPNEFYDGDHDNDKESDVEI
T1 sequence (Q9Y618 395-489 partner limits assumed): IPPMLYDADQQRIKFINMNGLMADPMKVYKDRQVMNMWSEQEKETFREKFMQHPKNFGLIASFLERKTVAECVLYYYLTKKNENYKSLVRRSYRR
As to the kind of experiment: HDAC enzymatic assay, HDAC3. The procedure:
as §1

Assay [4] concerns the target HDAC5 (Homo sapiens, UniProt Q9UQL6). As to the kind of experiment: HDAC enzymatic assay, HDAC5. The protocol:
as §1

In assay [5] the target is T2, HDAC7 (Homo sapiens, UniProt Q8WUI4).
T2 sequence (Q8WUI4 1-952): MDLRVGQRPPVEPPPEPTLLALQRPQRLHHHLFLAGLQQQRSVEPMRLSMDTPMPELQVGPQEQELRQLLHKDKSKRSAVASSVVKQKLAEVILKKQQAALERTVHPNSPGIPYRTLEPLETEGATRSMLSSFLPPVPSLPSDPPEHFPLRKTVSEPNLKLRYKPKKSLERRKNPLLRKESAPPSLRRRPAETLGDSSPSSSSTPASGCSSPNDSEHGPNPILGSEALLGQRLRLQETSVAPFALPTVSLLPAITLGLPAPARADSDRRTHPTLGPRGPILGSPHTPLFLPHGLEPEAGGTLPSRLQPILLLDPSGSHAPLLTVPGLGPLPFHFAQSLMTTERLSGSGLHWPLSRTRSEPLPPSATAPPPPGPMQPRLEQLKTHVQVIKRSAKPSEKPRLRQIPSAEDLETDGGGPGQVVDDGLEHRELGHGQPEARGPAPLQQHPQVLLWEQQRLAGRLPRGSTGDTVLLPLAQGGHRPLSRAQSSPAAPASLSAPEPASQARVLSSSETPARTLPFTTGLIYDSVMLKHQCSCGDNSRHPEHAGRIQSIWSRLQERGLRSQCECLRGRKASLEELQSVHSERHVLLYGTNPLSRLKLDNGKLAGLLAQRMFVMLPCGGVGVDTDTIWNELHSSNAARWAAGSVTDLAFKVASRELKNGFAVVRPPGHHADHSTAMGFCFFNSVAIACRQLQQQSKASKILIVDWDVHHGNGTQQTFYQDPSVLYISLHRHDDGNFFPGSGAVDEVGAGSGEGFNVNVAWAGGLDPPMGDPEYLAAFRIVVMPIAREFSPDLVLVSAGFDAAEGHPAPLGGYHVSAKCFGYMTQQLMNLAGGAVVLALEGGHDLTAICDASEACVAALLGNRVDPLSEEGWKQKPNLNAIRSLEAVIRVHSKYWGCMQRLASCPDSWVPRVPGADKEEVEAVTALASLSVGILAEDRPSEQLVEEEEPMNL
As to the kind of experiment: HDAC enzymatic assay, HDAC7. The protocol: as §1

In assay [6] the target is HDAC9 (Homo sapiens, UniProt Q9UKV0). As to the kind of experiment: HDAC enzymatic assay, HDAC9. The protocol: as §1
HDAC9, sequence (Q9UKV0 whole entry): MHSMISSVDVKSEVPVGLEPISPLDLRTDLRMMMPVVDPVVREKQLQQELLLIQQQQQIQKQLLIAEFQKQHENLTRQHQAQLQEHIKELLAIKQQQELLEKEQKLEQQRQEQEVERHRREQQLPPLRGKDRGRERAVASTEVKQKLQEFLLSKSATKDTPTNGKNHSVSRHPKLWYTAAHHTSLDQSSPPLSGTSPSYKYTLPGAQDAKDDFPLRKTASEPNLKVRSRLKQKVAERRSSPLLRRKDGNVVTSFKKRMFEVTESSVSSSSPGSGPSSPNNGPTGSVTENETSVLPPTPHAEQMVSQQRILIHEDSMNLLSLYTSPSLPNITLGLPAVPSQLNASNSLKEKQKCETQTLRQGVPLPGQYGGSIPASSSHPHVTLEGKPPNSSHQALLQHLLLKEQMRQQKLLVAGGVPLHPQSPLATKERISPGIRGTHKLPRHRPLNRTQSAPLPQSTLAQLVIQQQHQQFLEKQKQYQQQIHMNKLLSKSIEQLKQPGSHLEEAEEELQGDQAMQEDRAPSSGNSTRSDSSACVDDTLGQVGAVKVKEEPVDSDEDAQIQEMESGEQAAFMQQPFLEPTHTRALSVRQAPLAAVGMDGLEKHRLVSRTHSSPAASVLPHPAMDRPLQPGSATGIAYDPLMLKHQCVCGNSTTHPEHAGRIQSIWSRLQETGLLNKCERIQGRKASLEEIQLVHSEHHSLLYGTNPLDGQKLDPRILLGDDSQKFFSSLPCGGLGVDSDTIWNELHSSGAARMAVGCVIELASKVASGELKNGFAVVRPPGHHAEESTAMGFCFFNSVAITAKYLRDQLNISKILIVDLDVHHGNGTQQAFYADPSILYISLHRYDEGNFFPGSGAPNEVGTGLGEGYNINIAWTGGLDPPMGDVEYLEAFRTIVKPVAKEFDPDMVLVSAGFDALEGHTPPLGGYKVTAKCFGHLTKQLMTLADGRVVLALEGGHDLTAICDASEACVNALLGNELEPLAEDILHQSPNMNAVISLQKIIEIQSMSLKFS
Assay [7] concerns the target T3, HDAC10 (Homo sapiens, UniProt Q969S8).
T3 sequence (Q969S8 1-669): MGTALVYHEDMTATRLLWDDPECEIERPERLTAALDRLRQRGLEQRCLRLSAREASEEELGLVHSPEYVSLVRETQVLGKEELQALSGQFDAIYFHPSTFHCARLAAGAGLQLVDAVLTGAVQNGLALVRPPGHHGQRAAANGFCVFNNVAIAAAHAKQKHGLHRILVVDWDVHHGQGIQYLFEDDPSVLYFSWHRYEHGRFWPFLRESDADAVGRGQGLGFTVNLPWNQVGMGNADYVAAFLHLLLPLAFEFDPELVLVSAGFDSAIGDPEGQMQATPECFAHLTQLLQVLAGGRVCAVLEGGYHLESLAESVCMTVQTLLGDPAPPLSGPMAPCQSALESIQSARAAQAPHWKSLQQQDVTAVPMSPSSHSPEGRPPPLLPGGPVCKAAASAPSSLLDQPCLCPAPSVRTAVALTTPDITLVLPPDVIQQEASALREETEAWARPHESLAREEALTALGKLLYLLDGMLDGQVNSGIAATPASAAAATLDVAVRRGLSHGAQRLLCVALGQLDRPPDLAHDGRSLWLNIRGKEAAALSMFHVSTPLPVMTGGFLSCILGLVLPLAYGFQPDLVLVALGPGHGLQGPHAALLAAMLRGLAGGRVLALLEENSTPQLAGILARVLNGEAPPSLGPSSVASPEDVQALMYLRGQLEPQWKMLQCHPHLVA
As to the kind of experiment: HDAC enzymatic assay, HDAC10. The procedure:
as §1

Where [8] appears, read: Table 2, thio (SH) vs hydroxamate (CONHOH) MBG analogues, read-out: HDAC isoforms, 1 (IC50).
Where [9] appears, read: Table 2, thio (SH) vs hydroxamate (CONHOH) MBG analogues, read-out: HDAC isoforms, 2 (IC50).
Setting [10] is: Table 2, thio (SH) vs hydroxamate (CONHOH) MBG analogues, read-out: HDAC isoforms, 3 (IC50).
The mark [11] stands for this setting: Table 2, thio (SH) vs hydroxamate (CONHOH) MBG analogues, read-out: HDAC isoforms, 5 (IC50).
The mark [12] stands for this setting: Table 2, thio (SH) vs hydroxamate (CONHOH) MBG analogues, read-out: HDAC isoforms, 7 (IC50).
The mark [13] stands for this setting: Table 2, thio (SH) vs hydroxamate (CONHOH) MBG analogues, read-out: HDAC isoforms, 9 (IC50).
Where [14] appears, read: Table 2, thio (SH) vs hydroxamate (CONHOH) MBG analogues, read-out: HDAC isoforms, 10 (IC50).
[15] abbreviates: fluorogenic tetrapeptide RHKKAc substrate 10 μM, read-out: HDAC isoforms IC50 (nM), 1.
The mark [16] stands for this setting: fluorogenic tetrapeptide RHKKAc substrate 10 μM, read-out: HDAC isoforms IC50 (nM), 2.
[17] abbreviates: fluorogenic tetrapeptide RHKKAc substrate 10 μM, read-out: HDAC isoforms IC50 (nM), 3.
Where [18] appears, read: fluorogenic tetrapeptide RHKKAc substrate 10 μM, read-out: HDAC isoforms IC50 (nM), 5.
Setting [19] is: fluorogenic tetrapeptide RHKKAc substrate 10 μM, read-out: HDAC isoforms IC50 (nM), 7.
Where [20] appears, read: fluorogenic tetrapeptide RHKKAc substrate 10 μM, read-out: HDAC isoforms IC50 (nM), 9.
[21] abbreviates: fluorogenic tetrapeptide RHKKAc substrate 10 μM, read-out: HDAC isoforms IC50 (nM), 10.

HDAC5, sequence (Q9UQL6 whole entry): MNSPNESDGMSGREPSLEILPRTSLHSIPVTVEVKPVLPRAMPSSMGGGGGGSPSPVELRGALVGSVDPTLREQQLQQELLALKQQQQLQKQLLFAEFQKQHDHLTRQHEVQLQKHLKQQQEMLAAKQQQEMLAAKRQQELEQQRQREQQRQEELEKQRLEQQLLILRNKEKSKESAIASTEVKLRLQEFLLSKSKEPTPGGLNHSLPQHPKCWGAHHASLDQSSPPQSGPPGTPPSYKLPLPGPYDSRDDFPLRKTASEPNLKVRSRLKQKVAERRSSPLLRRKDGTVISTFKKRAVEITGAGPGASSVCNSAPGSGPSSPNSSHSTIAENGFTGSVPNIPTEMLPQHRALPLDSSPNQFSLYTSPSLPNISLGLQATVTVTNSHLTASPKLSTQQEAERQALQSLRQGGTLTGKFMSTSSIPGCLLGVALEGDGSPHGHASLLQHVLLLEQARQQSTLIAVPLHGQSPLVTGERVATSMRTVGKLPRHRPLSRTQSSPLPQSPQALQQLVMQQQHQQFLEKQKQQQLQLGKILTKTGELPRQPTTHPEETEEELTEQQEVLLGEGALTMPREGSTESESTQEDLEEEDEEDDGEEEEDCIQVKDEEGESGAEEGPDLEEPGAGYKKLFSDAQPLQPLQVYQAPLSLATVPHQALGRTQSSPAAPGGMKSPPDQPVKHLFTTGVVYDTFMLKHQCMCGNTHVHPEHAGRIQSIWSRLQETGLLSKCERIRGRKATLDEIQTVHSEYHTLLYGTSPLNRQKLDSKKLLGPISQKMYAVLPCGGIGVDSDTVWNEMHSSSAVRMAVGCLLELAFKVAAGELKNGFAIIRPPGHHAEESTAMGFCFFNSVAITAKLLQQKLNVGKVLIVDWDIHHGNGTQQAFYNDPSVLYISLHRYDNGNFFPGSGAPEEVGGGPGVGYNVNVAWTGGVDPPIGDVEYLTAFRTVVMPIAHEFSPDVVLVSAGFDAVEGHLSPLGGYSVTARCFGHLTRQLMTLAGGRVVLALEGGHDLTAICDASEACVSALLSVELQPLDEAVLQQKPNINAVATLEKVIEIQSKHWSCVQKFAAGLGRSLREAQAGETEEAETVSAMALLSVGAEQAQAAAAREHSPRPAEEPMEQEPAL
HDAC2, sequence (Q92769 whole entry, the tested form may be a part): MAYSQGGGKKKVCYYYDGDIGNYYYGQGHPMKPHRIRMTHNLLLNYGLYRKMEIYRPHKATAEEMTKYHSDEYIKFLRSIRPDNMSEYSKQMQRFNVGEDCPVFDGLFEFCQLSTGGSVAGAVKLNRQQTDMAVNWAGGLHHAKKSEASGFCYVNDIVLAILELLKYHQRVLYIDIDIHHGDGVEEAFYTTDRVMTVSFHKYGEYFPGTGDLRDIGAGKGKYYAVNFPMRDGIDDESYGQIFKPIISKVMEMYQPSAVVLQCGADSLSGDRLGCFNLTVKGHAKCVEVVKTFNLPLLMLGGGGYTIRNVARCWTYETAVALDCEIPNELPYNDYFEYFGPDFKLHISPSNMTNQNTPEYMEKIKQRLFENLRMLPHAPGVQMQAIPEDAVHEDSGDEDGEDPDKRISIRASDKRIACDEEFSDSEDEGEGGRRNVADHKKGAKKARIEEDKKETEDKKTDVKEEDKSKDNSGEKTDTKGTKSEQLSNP
HDAC1, sequence (Q13547 whole entry): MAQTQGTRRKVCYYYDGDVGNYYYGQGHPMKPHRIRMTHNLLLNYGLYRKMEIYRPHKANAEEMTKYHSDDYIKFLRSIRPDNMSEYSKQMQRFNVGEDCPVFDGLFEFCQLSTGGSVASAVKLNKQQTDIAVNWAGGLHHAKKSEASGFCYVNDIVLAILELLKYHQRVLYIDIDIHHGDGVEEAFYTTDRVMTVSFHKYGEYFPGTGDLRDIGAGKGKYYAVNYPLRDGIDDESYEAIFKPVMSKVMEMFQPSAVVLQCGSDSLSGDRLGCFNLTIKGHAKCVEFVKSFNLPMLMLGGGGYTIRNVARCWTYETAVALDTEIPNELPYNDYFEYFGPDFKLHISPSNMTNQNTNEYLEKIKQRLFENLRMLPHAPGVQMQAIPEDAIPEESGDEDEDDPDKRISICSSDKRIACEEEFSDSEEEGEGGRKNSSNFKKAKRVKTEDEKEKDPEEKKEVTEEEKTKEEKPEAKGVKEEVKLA

For `CC(=O)SCCCCC[C@H](NC(=O)[C@H]1CCC(=O)N1)C(=O)Nc1ccccc1` [Example 21, Thioacetic acid S—{(S)-6-[((R)-5-oxo-pyrrolidine-2-carbonyl)-amino]-6-phenylcarbamoyl-hexyl}ester], the 50% inhibitory concentration (IC50) (usually the midpoint of a concentration-inhibition curve) is less than 50 nM in assay [1] (setting [8]); 50 to 100 nM in assay [2] (setting [9]); less than 50 nM in assay [3] (setting [10]); less than 50 nM in assay [4] (setting [11]); less than 50 nM in assay [5] (setting [12]); less than 50 nM in assay [6] (setting [13]). The IC50 in assay [7] (setting [14]) is less than 50 nM.
On to `O=C1CCC[C@@H](C(=O)N[C@@H](CCCCCS)C(=O)Nc2ccccc2)N1` [Example 23, (S)-6-Oxo-piperidine-2-carboxylic acid ((S)-6-mercapto-1-phenylcarbamoyl-hexyl)amide], for which the IC50 in assay [1] (setting [15]) was less than 50 nM; in assay [2] (setting [16]) it was 50 to 100 nM; in assay [3] (setting [17]), less than 50 nM; in assay [4] (setting [18]) it was less than 50 nM; in assay [5] (setting [19]), less than 50 nM; in assay [6] (setting [20]), less than 50 nM. The IC50 in assay [7] (setting [21]) is less than 50 nM.
As to `O=C1CCC[C@@H](C(=O)N[C@@H](CCCCCS)C(=O)NC2CCCC2)N1` [Example 24, (S)-6-Oxo-piperidine-2-carboxylic acid ((S)-1-cyclopentylcarbamoyl-6-mercapto-hexyl)amide], the IC50 in assay [1] (setting [15]) was 100 to 500 nM; in assay [2] (setting [16]) it was 100 to 500 nM; in assay [3] (setting [17]), 50 to 100 nM; in assay [4] (setting [18]) it was 100 to 500 nM; in assay [5] (setting [19]) it was less than 50 nM; in assay [6] (setting [20]) it was less than 50 nM. Moreover, the IC50 in assay [7] (setting [21]) lay in the range of 100 to 500 nM.
On to `O=C1CCC[C@@H](C(=O)N[C@@H](CCCCCS)C(=O)NCc2cccc(OCc3ccccc3)c2)N1` [Example 25, (S)-6-Oxo-piperidine-2-carboxylic acid [(S)-1-(3-benzyloxy-benzylcarbamoyl)-6-mercapto-hexyl]-amide], for which the IC50 in assay [1] (setting [15]), in assay [2] (setting [16]), in assay [3] (setting [17]), in assay [4] (setting [18]), in assay [5] (setting [19]) and in assay [6] (setting [20]) was 100 to 500 nM each time. The IC50 in assay [7] (setting [21]) is 100 to 500 nM.
Regarding `O=C1CCC[C@@H](C(=O)N[C@@H](CCCCCS)C(=O)NCc2ccc(C(F)(F)F)cc2)N1` [Example 26, (S)-6-Oxo-piperidine-2-carboxylic acid [(S)-6-mercapto-1-(4-trifluoromethyl-benzylcarbamoyl)-hexyl]-amide], the IC50 in assay [1] (setting [15]), in assay [2] (setting [16]), in assay [3] (setting [17]), in assay [4] (setting [18]), in assay [5] (setting [19]) and in assay [6] (setting [20]) was 100 to 500 nM throughout. The IC50 in assay [7] (setting [21]) was in the range of 100 to 500 nM.
For `O=C1C[C@@H](C(=O)N[C@@H](CCCCCS)C(=O)Nc2ccccc2)N1` [Example 27, (S)-4-Oxo-azetidine-2-carboxylic acid ((S)-6-mercapto-1-phenylcarbamoyl-hexyl)amide], the IC50 was less than 50 nM in assay [1] (setting [15]); 50 to 100 nM in assay [2] (setting [16]); less than 50 nM in assay [3] (setting [17]); less than 50 nM in assay [4] (setting [18]); less than 50 nM in assay [5] (setting [19]); less than 50 nM in assay [6] (setting [20]). Moreover, the IC50 in assay [7] (setting [21]) was less than 50 nM.
Consider `O=C1NC[C@H](c2ccccc2)[C@@H]1C(=O)N[C@@H](CCCCCS)C(=O)Nc1ccccc1` [Example 28, (3S,4S)-2-Oxo-4-phenyl-pyrrolidine-3-carboxylic acid ((S)-6-mercapto-1-phenylcarbamoyl-hexyl)-amide], for which the IC50 was less than 50 nM in assay [1] (setting [15]); 100 to 500 nM in assay [2] (setting [16]); less than 50 nM in assay [3] (setting [17]); 50 to 100 nM in assay [4] (setting [18]); 100 to 500 nM in assay [5] (setting [19]); less than 50 nM in assay [6] (setting [20]). In addition, the IC50 in assay [7] (setting [21]) is less than 50 nM.
Turning to `O=C1NC[C@@H](c2ccccc2)[C@H]1C(=O)N[C@@H](CCCCCS)C(=O)Nc1ccccc1` [Example 29, (3R,4R)-2-Oxo-4-phenyl-pyrrolidine-3-carboxylic acid ((S)-6-mercapto-1-phenylcarbamoyl-hexyl)-amide], the IC50 fell in the range of 50 to 100 nM in assay [1] (setting [15]); 100 to 500 nM in assay [2] (setting [16]); 50 to 100 nM in assay [3] (setting [17]); 100 to 500 nM in assay [4] (setting [18]); 100 to 500 nM in assay [5] (setting [19]); 50 to 100 nM in assay [6] (setting [20]). Further, the IC50 in assay [7] (setting [21]) is less than 50 nM.
Consider `O=C1NC[C@H](c2ccccc2)[C@H]1C(=O)N[C@@H](CCCCCS)C(=O)Nc1ccccc1` [Example 30, (3R,4S)-2-Oxo-4-phenyl-pyrrolidine-3-carboxylic acid ((S)-6-mercapto-1-phenylcarbamoyl-hexyl)-amide], for which the IC50 in assay [1] (setting [15]) was in the range of 50 to 100 nM; in assay [2] (setting [16]) it was 100 to 500 nM; in assay [3] (setting [17]), 50 to 100 nM; in assay [4] (setting [18]), 100 to 500 nM; in assay [5] (setting [19]), 100 to 500 nM; in assay [6] (setting [20]), 50 to 100 nM. Moreover, in assay [7] (setting [21]), the IC50 is less than 50 nM.
In the case of `O=C1NC[C@@H](c2ccccc2)[C@@H]1C(=O)N[C@@H](CCCCCS)C(=O)Nc1ccccc1` [Example 31, (3S,4R)-2-Oxo-4-phenyl-pyrrolidine-3-carboxylic acid ((S)-6-mercapto-1-phenylcarbamoyl-hexyl)-amide], the IC50 in assay [1] (setting [8]), in assay [1] (setting [15]), in assay [2] (setting [9]), in assay [2] (setting [16]), in assay [3] (setting [10]) and in assay [3] (setting [17]) was less than 50 nM throughout. Also, the IC50 in assay [4] (setting [11]), in assay [4] (setting [18]), in assay [5] (setting [12]), in assay [5] (setting [19]), in assay [6] (setting [13]) and in assay [6] (setting [20]) was less than 50 nM in each case. For the same compound, the IC50 in assay [7] (setting [14]) and in assay [7] (setting [21]) was less than 50 nM each time.
